From the supplement of paper PMC10307832

Assays:
Experiment in all cases: relative viability (nuclei count vs DMSO), 5 days (fraction); higher = more cells survive
[1] = compound: O=C(O)C(Cc1ccccc1[N+](=O)[O-])=NNc1nc(-c2ccc(Cl)c(Cl)c2)cs1 (mixture of isomers) [4EGI-1] + COc1cccc2cc(-c3nc([C@H]4CC[C@H](C(=O)O)CC4)n4ncnc(N)c34)[nH]c12 [OSI-027] (partner 0.5 µM)
In short: (§1)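 A single step with final 0.05% Triton X-100, 1% formaldehyde and 1 ug/ml Hoechst fixed the cells and stained nuclei 5 days after treatment. Lung cancer cell lines in 1536-well plates had been treated by pin tool the day after seeding with one drug alone or a fixed anchor-drug dose plus five library-drug doses (not always all listed) in √10 steps, and nuclei were counted on 4× images. Relative viability is the ratio of nuclei in treated wells to nuclei in vehicle wells, taken as the median of duplicate plates.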

[2] = compound: O=C(O)C(Cc1ccccc1[N+](=O)[O-])=NNc1nc(-c2ccc(Cl)c(Cl)c2)cs1 (mixture of isomers) [4EGI-1] + CS(=O)(=O)CCNCc1ccc(-c2ccc3ncnc(Nc4ccc(OCc5cccc(F)c5)c(Cl)c4)c3c2)o1 [Lapatinib] (partner 2 µM)
In short: as §1

[3] = compound: CN1CCN(CC1)C2=CC(=C(C=C2)NC3=NC=C4C(=N3)N(C5=CC=CC=C5C(=O)N4C)C)OC [XMD8-85] + COc1cc2c(Oc3ccc(NC(=O)C4(C(=O)Nc5ccc(F)cc5)CC4)cc3F)ccnc2cc1OCCCN1CCOCC1 [Foretinib] (partner 0.25 µM)
In short: as §1

[4] = compound: O=C(O)C(Cc1ccccc1[N+](=O)[O-])=NNc1nc(-c2ccc(Cl)c(Cl)c2)cs1 (mixture of isomers) [4EGI-1] + Nc1nc2[nH]cc(CCc3ccc(C(=O)N[C@@H](CCC(=O)O)C(=O)O)cc3)c2c(=O)[nH]1 [Pemetrexed] (partner 0.2 µM)
In short: as §1

| Cell Line | relative viability ([1]; first compound 0.5 µM) | relative viability ([1]; first compound 1.581 µM) | relative viability ([1]; first compound 5 µM) | relative viability ([1]; first compound 15.81 µM) | relative viability ([1]; first compound 50 µM) | relative viability ([2]; first compound 0.5 µM) | relative viability ([2]; first compound 1.581 µM) | relative viability ([2]; first compound 5 µM) | relative viability ([2]; first compound 15.81 µM) | relative viability ([2]; first compound 50 µM) | relative viability ([3]; first compound 0.08 µM) | relative viability ([3]; first compound 0.253 µM) | relative viability ([3]; first compound 0.8 µM) | relative viability ([3]; first compound 2.53 µM) | relative viability ([3]; first compound 8 µM) | relative viability ([4]; first compound 0.5 µM) | relative viability ([4]; first compound 1.581 µM) | relative viability ([4]; first compound 5 µM) | relative viability ([4]; first compound 15.81 µM) | relative viability ([4]; first compound 50 µM) |
| --- | --- | --- | --- | --- | --- | --- | --- | --- | --- | --- | --- | --- | --- | --- | --- | --- | --- | --- | --- | --- |
| HARA | 0.651 | 0.517 | 0.648 | 0.453 | 0.154 | 0.697 | 0.732 | 0.817 | 0.724 | 0.257 | 1.09 | 0.701 | 0.97 | 0.782 | 0.583 | 0.266 | 0.273 | 0.333 | 0.238 | 0.223 |
| LC-2-ad | 0.873 |  | 0.894 | 0.386 | 0.234 | 0.988 | 0.89 | 0.942 | 0.228 | 0.175 | 0.866 | 0.976 | 0.995 | 0.785 | 0.607 | 0.301 | 0.28 | 0.287 | 0.258 | 0.257 |
| NCI-H661 | 0.713 | 0.583 | 0.649 | 0.383 | 0.245 | 0.666 | 0.46 | 0.566 | 0.43 | 0.342 | 1.16 | 1.09 | 0.989 | 1.07 | 0.91 | 0.939 | 0.834 | 0.92 | 0.761 | 0.334 |
| NCI-H2087 | 0.693 | 0.523 | 0.656 | 0.438 | 0.203 | 1.11 | 0.934 | 1.07 | 0.911 | 0.222 | 1.34 | 1.11 | 1.32 | 1.15 | 0.682 | 0.651 | 0.648 | 0.637 | 0.637 | 0.481 |
| EKVX | 0.736 | 0.594 | 0.738 | 0.567 | 0.696 | 0.222 | 0.17 | 0.184 | 0.204 | 0.18 | 0.716 | 0.864 | 0.836 | 0.971 | 0.664 | 0.418 |  | 0.407 | 0.325 | 0.368 |
| NCI-H650 | 0.6 |  | 0.565 | 0.5 | 0.443 | 1.28 |  | 1.12 | 0.918 | 0.652 | 1.05 | 0.997 | 0.947 | 1.04 | 0.685 | 0.966 |  | 1.06 | 0.973 | 0.725 |
| NCI-H1355 | 0.397 | 0.354 | 0.384 | 0.291 | 0.264 | 1.11 | 0.931 | 1.03 | 0.989 | 0.586 | 1.02 | 1.01 | 0.977 | 0.878 | 0.811 | 0.967 | 0.927 | 0.99 | 0.963 | 0.589 |
| HOP-62 | 0.878 | 0.585 | 0.839 | 0.746 | 0.483 | 1.06 |  | 1.08 | 0.961 | 0.362 | 1.14 | 1.13 | 0.971 | 0.946 | 0.466 | 0.342 | 0.389 | 0.362 | 0.311 | 0.318 |
| BEN | 0.328 | 0.281 | 0.324 | 0.317 | 0.26 | 0.786 | 0.854 | 0.734 | 0.573 | 0.612 | 0.729 | 0.543 | 0.509 | 0.438 | 0.304 | 0.814 | 0.785 | 0.772 | 0.622 | 0.432 |
| NCI-H2023 | 0.712 |  | 0.359 | 0.162 | 0.0791 | 1.37 |  | 0.964 | 0.217 | 0.0883 | 0.865 | 0.804 | 0.961 | 0.699 | 0.391 | 0.263 |  | 0.223 | 0.164 | 0.101 |
| NCI-H1651 | 0.845 | 0.565 | 0.693 | 0.664 | 0.463 | 0.993 | 0.85 | 0.813 | 0.665 | 0.185 | 0.857 | 0.769 | 0.712 | 0.799 | 0.631 | 0.599 | 0.576 | 0.636 | 0.52 | 0.412 |
| NCI-H1666 | 0.841 | 0.805 | 0.948 | 0.606 | 0.433 | 0.743 | 0.616 | 0.653 | 0.526 | 0.229 | 0.991 | 0.988 | 0.963 | 0.893 | 0.886 | 0.898 | 0.889 | 0.891 | 0.711 | 0.641 |
| LU99A | 0.306 | 0.275 | 0.269 | 0.274 | 0.288 | 1.04 |  | 1.08 | 0.739 | 0.214 | 0.768 |  | 0.761 | 0.854 | 0.597 | 0.177 | 0.179 | 0.166 | 0.248 | 0.154 |
| NCI-H322M | 0.63 |  | 0.546 | 0.532 | 0.223 | 0.617 | 0.558 | 0.637 | 0.566 | 0.427 | 0.733 | 0.856 | 1.01 | 0.8 | 0.631 | 0.576 |  | 0.643 | 0.618 | 0.377 |
